Experimental data from patent US20060281670A1, “Compositions and methods for modulating angiogenesis” (Wisconsin Alumni Research Foundation (WARF), priority 2005, published 2006).

Experiments:
[1] = tested on: Yolk sac endothelial cells (YSECs); conditions: for rescue of tube formation in IBMX+NK-B treated cells: 100 ng/ml mouse VEGF164 or 30 ng/ml mouse bFGF
Experimental: (§1) Vascular network assembly was assessed by measuring the formation of capillary-like structures by endothelial cells on Matrigel (BD Biosciences, San Jose, Calif.). Matrigel was diluted 1:1 with supplement-free M200 medium, poured in 24-well plates, and allowed to solidify at 37° C. Subconfluent endothelial cells were harvested and preincubated under different experimental conditions (YSECs, 1 h; HUVECs, HAECs, and human microvascular endothelial cells (HMVECs), 2 h in supplement-free M200 medium in microfuge tubes. An equal volume of supplemented medium containing the indicated reagents was added. Cells were plated on Matrigel (1.5×10^5 cells/well) and incubated at 37° C. Vascular network assembly was measured as a function of time, and digital pictures were captured.

[2] = tested on: Flt-1 and Flk-1 (VEGF receptors) in YSECs; test: Gene expression analysis by real-time RT-PCR; format: cell-based, mouse; conditions: for rescue of Flt-1 and Flk-1 expression and cell signaling: NK-B/IBMX-treated YSECs, growth factor 100 ng/ml
Experimental: Real-time RT-PCR was conducted Total RNA was purified with Trizol (Invitrogen). cDNA was prepared by annealing RNA (1 μg) with 250 ng of a 1:5 mixture of random and oligo(dT) primers (Promega) at 68° C. for 10 min, followed by incubation with Moloney Murine Leukemia Virus reverse transcriptase (Invitrogen) with 10 mM dithiothreitol, RNasin (Promega), and 0.5 mM dNTPs at 42° C. for 1 h. Reactions were diluted to a final volume of 100 μl and subjected to heat-inactivation at 98° C. for 10 min. Reactions (25 μl) contained 2.5 μl of cDNA, 12.5 μl of SYBR Green Master Mix (Applied Biosystems), and appropriate primers. Product accumulation was monitored by SYBR Green fluorescence. Control reactions lacking RT yielded little or no signals. The relative expression levels were determined from a standard curve of serial dilutions of cDNA samples from untreated control cells, and measurements were conducted under conditions of linearity.
Real time RT-PCR primers were designed using PRIMER EXPRESS 1.0 (PE Applied Biosystems) to amplify 50-150 bp amplicons and were based on GenBank Ensembl sequences.

[3] = tested on: chorioallantoic membrane (CAM); test: Chick chorioallantoic membrane assay; format: in vivo, chicken; conditions: L733060 5 μM, SB222200 2 μM, alone or combined; day 7 embryos, 48 h
Experimental: Fertilized chicken eggs were incubated at 39° C. with 90% humidity. On embryonic day 7, a small hole was drilled at the end of the egg that contains the air sac to lower the embryo. A second hole was made above the chorioallantoic membrane (CAM), and 100 μl of a 1.5% solution of methylcellulose (Stem Cell Technologies, Vancouver, BC) containing either FGF2 (500 ng) or VEGF (200 ng) and vehicle, IBMX (100 μg), NK-B (40 μg)/IBMX, or mutant NK-B (40 μg)/IBMX were applied to the CAM. A solution of penicillin/streptomycin was added, and the eggs were sealed with transparent tape. Vasculature was analyzed after 48 h, and digital images were captured at 40× magnification.

calreticulin in YSECs = test: Calreticulin 2D gel electrophoresis and Western blot; format: cell-based, mouse; conditions: 2 μM ionomycin, 1 h, supplement-free M200 medium
Experimental: […] Cells were processed and proteins analyzed as described above in Example 2.
Cells were harvested, washed twice with ice-cold PBS, and lysed in lysis buffer containing 10 mM Tris (pH 7.4), 0.3% SDS, 100 μg/mL Ribonuclease A (Sigma), 200 μg/mL DNase I (Sigma), 20 μg/mL leupeptin (Sigma), 6 μg/mL E-64 (Sigma), 1 mM EDTA (Calbiochem), and 100 μg/mL benzamidine (Sigma). Cells were incubated on ice for 30 min, an equal volume of loading buffer containing 60 mM Tris (pH 6.8), 5% SDS, 10% glycerol was added, and samples were boiled for 5 min. 2D gel electrophoresis was conducted using pH 3.5-10 ampholines, and proteins were detected by Coomassie Blue staining. […]
The following antibodies were used for Western blots: Anti-phospho-FAK (Tyr-397) (Biosource, 44-624G); anti-FAK, anti-phospho-Akt (Ser 473), anti-Akt, anti-phospho-p44/42 MAP kinase (Thr 202/Tyr 204), anti-p44/42 MAP kinase antibodies (Cell Signaling Technology); anti-calreticulin (Upstate, 06-661); anti-α-tubulin (Calbiochem); anti Flt-1 (Santa Cruz Biotech, C-17); anti-Flk-1 (Cell Signaling Technologies, 2479). […] Extracts were resolved on SDS polyacrylamide gels, transferred to Immobilon P membranes (Millipore, Billerica, Mass.), and analyzed by Western blotting. Proteins were detected by chemiluminescence using ECL-Plus (Amersham Biosciences Piscataway, N.J.).

[4] = tested on: human aortic endothelial cells (HAECs); test: Vascular network assembly assay on Matrigel; format: cell-based; conditions: NK-B, U46619 (2 μM) or both, 2 h, 16 h on Matrigel
Experimental: as §1

YSECs [5] = test: cAMP assay; format: cell-based, mouse; conditions: supplement-free M200 medium
Experimental: Cells were cultured in 6-well plates (2×10^5 cells/well), washed with supplement-free M200 medium and treated with indicated reagents at 37° C. The reactions were terminated by aspiration of the medium. Cells were washed with PBS and lysed in 500 μl of 0.1 N HCl containing 0.5% Triton X-100. cAMP was assayed in cell lysates (100 μl) using a direct cAMP enzyme-linked immunosorbent assay (Assay Designs, Inc., Ann Arbor, Mich.).

YSECs [6] = test: Calcium imaging (Ca+2 oscillations); format: cell-based, mouse; conditions: YSECs on Matrigel, supplemented medium
Experimental: Cells were incubated for ˜30 min in 4 μM fluo-4/AM (Molecular Probes, Carlsbad, Calif.) in supplement-free M200 medium at 37° C., trypsinized, plated on Matrigel with indicated reagents, and allowed to adhere for 10 min. Time-lapse video microscopy with an Olympus AX70 laser scanning confocal microscope was used to measure intracellular Ca^+2 as described previously (Robles et al., 2003). An argon laser at 488 nm was used to excite Fluo-4, and the emitted light was detected at wavelengths>510 nm. Images were acquired at 15 s intervals and analyzed using Image J (Image Processing and Analysis in JAVA, Nat'l Inst. Health). When indicated, the fluorescence intensity in the region of interest (F) was normalized by dividing the Ca+2 signal by the fluorescence intensity of the resting cell at time 0 (F0).

HUVECs = test: Vascular network assembly assay on Matrigel; format: cell-based, human
Experimental: as §1

Molecule: VEGF
- rescue of tube formation in IBMX+NK-B treated cells [1]: can form capillary-like tubes but in a slower kinetics
- rescue of Flt-1 and Flk-1 expression and cell signaling [2]: rescues Flt-1 and Flk-1 expression and cell signaling

Molecule: Cl.FC(F)(F)c1cc(CO[C@H]2CCCN[C@H]2c2ccccc2)cc(C(F)(F)F)c1 [L733060]
- microvessel density of CAM [3]: much higher

Molecule: CC[C@H](NC(=O)c1c(C)c(-c2ccccc2)nc2ccccc12)c1ccccc1 [SB222200, (S)-3 methyl-2-phenyl-N-(1-phenylpropyl)-4-quinilinecarboxamide]
- microvessel density of CAM [3]: much higher

Molecule: CC(C)Cn1c(=O)n(C)c(=O)c2[nH]cnc21 [IBMX, 3-Isobutyl-1-methylxanthine]
- vascular network assembly (capillary like tube formation) ([1]; 250 μM IBMX, 10 μM forskolin, 100 μM NK-B, 20 h, 3 experiments): has little effect on vascular network assembly

Molecule: C[C@H](CCC(=O)O)C[C@H](C)C[C@H](C)C(=O)/C=C(\O)[C@H](C)C[C@H](C)C/C=C/[C@@H](C)[C@@H](O)[C@@H](C)[C@@H](O)C[C@@H]1CC[C@@](C)([C@H]2CC[C@@](C)([C@@H](C)O)O2)O1 [ionomycin]
- calreticulin/alpha-tubulin ratio increase (calreticulin in YSECs): ~2 fold

Molecule: FGF2: fibroblast growth factor-2 (bovine FGF2 from R & D systems; also called mouse FGF2/bFGF)
- rescue of tube formation in IBMX+NK-B treated cells [1]: but not bFGF Rescues the NK-B Effect
- rescue of Flt-1 and Flk-1 expression and cell signaling [2]: but not FGF2, rescues Flt-1 and Flk-1 expression and cell signaling
- FGFR1 transcription ([2]; YSECs, 100 ng/ml FGF2 with or without NK-B): increased

Molecule: CCCCC[C@H](O)/C=C/[C@@H]1[C@@H](C/C=C\CCCC(=O)O)[C@H]2CO[C@@H]1C2 [U46619]
- vascular network assembly [4]: had little effect
- cAMP (YSECs [5]): decrease the amount of cAMP
- vascular network assembly ([1]; NK-B, U46619 (2 μM) or both, 1 h, 16 h on Matrigel): had little effect
- Ca+2 oscillations (YSECs [6]): decreasing the amount of Ca^2+ oscillations
- vascular network assembly (HUVECs; NK-B, U46619 (2 μM) or both, 2 h, 16 h on Matrigel): had little effect

B1: calreticulin: E. coli overexpressed and purified recombinant calreticulin, anti-angiogenic protein (protein, UniProt P27797 18-417, looked up)
Calreticulin: EPAVYFKEQFLDGDGWTSRWIESKHKSDFGKFVLSSGKFYGDEEKDKGLQTSQDARFYALSASFEPFSNKGQTLVVQFTVKHEQNIDCGGGYVKLFPNSLDQTDMHGDSEYNIMFGPDICGPGTKKVHVIFNYKGKNVLINKDIRCKDDEFTHLYTLIVRPDNTYEVKIDNSQVESGSLEDDWDFLPPKKIKDPDASKPEDWDERAKIDDPTDSKPEDWDKPEHIPDPDAKKPEDWDEEMDGEWEPPVIQNPEYKGEWKPRQIDNPDYKGTWIHPEIDNPEYSPDPSIYAYDNFGVLGLDLWQVKSGTIFDNFLITNDEAYAEEFGNETWGVTKAAEKQMKDKQDEEQRLKEEEEDKKRKEEEEAEDKEDDEDKDEDEEDEEDKEEDEEEDVPGQAKDEL
- Flt-1 and Flk-1 transcription ([2]; YSECs, forskolin (10 μM)/IBMX, calreticulin (13 μg/ml), vasostatin (5 μg/ml), 1, 2 or 5 h on Matrigel): failed to affect Flt-1 and Flk-1 transcription
- vascular network assembly (HUVECs; calreticulin 13 μg/ml, vasostatin 5 μg/ml, 1 h): inhibit YSEC and HUVEC vascular network assembly
